# Patent US10485841B2, “Method for producing dry extracts” (Bionorica SE, priority 2011, dated 2019)
# What was measured:
# [1] = system: carrageen-induced paw oedema; assay: carrageen-induced paw oedema in rats (Example 2); assay type: in vivo, rat; conditions: 30 minutes following carrageen injection, FIG. 3
# Description: (§1) The anti-inflammatory activity of Sinupret could be confirmed in the animal model. For example, carrageen-induced paw oedema in rats (Male Wistar Han rats, 220-230 g) was selected as the test model. In this model, it was possible to examine the anti-inflammatory effect of test substances by measuring their inhibitory effect on the paw oedema or pleuritis caused by carrageen. The following were used as reference substances: (RS)-2-[4-(2-methylpropyl)phenyl]propanoic acid (Ibuprofen®) and 2-[1-(4-chlorobenzoyl)-5-methoxy-2-methyl-1H-indol-3-yl] acetic acid (indomethacin, “indo”). In the present tests, groups of 10 rats in each case were treated either with Ibuprofen®, indomethacin, Sinupret® dry extract (SIN TR) or Sinupret® drug mixture (SIN, as commercially available) and were injected one hour later with carrageen. The inhibition of the oedema formation by the test and reference substances was determined at various moments in time after carrageen injection, wherein the paw volume of animals treated only with carrageen was used as a control (vehicle=blank control). The results of these tests are presented in Tables 1 and 2 and in FIGS. 3 to 6 and will be explained hereinafter.
# [2] = system: carrageen-induced pleuritis; assay: carrageen-induced pleuritis in rats; assay type: in vivo, rat; conditions: 5 mg/kg
# Description: as §1
# Rats (10 per group) were each treated with 100 mg/kg or 500 mg/kg of SIN and by way of comparison with 5 mg/kg of indomethacin and blank and were injected 1 hour later with carrageen.
# “Inflammatory cells” correlates to PMN (polymorphonuclear neutrophils) accumulation/infiltration.
# Statistics: average+/−SEM, n=10, ** p<0.01; ***p<0.001 vs vehicle (blank) (Tukey Test), p<0.05 is statistically significant.
# Rats (10 per group) were each treated with 100 mg/kg or 500 mg/kg of SIN TR and by way of comparison with 5 mg/kg of indomethacin and blank and were injected one hour later with carrageen.
# [3] = 4 h after carrageen, mean ± SEM, n=10
SMILES,inhibition of paw oedema [1],"exudate volume, inhibition vs vehicle ([2]; 4 h)","inflammatory cells, inhibition vs vehicle ([2]; 4 h)","IL1β [2, 3]","LTB4 [2, 3]","PGE2 [2, 3]","TNFα [2, 3]","exudate volume [2, 3]","inflammatory cells × 10^6 [2, 3]"
"CC(C)Cc1ccc(C(C)C(=O)O)cc1 (racemic) [Ibuprofen®, (RS)-2-[4-(2-methylpropyl)phenyl]propanoic acid]",still did not show any anti-inflammatory effect,–,–,–,–,–,–,–,–
"COc1ccc2c(c1)c(CC(=O)O)c(C)n2C(=O)c1ccc(Cl)cc1 [Indomethacin, 2-[1-(4-chlorobenzoyl)-5-methoxy-2-methyl-1H-indol-3-yl] acetic acid]",–,(96%),(70%),3.17 ± 0.18 ng/rat,0.43 ± 0.02 ng/rat,<0.125 ng/rat,5.48 ± 0.28 ng/rat,0.009 ± 0.003 mL,11.4 ± 0.93 × 10^6
